The values that follow come from EPA's ToxRefDB 2.

For data set [1], the system named is rat. To be noted: Subchronic oral toxicity in rodents, sprague dawley, Feed, dose end: 13 week, group: systemic.
For data set [2], the system named is mouse. As to conditions: Subchronic oral toxicity in rodents, b6c3f1, Feed, dose end: 90 day, group: systemic.
Data set [3] concerns dog. As to conditions: Sub-acute repeat dose toxicity, beagle, Oral, Feed, group: systemic.
In data set [4] the test system is rat. To be noted: Multigenerational reproductive toxicity study, sprague dawley, Inhalation, Whole-Body, dose end: 2 generation.
Data set [5] has as its system rat. To be noted: Prenatal developmental toxicity study, sprague dawley, Inhalation, Whole-Body, dose end: 19 GD, group: maternal.
The test system of data set [6] is dog. To be noted: Subchronic oral toxicity in nonrodent, beagle, Capsule, dose end: 13 week, group: systemic.
Data set [7] relates to rat. As to conditions: Combined chronic toxicity/carcinogenicity, sprague dawley, Oral, [Not Specified], dose end: 104 week, group: systemic.
For data set [8], the system named is mouse. To be noted: Carcinogenicity, cd1, Oral, Feed, dose end: 80 week, group: systemic.
The subject of data set [9] is rat. To be noted: Multigenerational reproductive toxicity study, sprague dawley, Oral, Feed, dose end: 2 generation.
In data set [10] the test system is rat. As to conditions: Subchronic oral toxicity in rodents, sprague dawley, Feed, dose end: 13 week, group: systemic. The source holds these as a separate data set.
Data set [11] deals with rat. As to conditions: Prenatal developmental toxicity study, sprague dawley, Oral, Gavage/Intubation, dose end: 16 GD.
In data set [12] the test system is dog. To be noted: Chronic toxicity, beagle, Oral, Capsule, dose end: 52 week, group: systemic.
The mark [13] stands for this setting: systemic / clinical chemistry / alanine aminotransferase (alt/sgpt) / alanine aminotransferase (alt/sgpt) + systemic / clinical chemistry / ….
Setting [14] is: systemic / in life observation / body weight / body weight + systemic / in life observation / food consumption / food consumption + systemic….
Where [15] appears, read: group: offspring, systemic / organ weight / kidney / nos + systemic / in life observation / body weight / offspring (pup) weight + developmental / ….
Where [16] appears, read: group: parental, systemic / pathology gross / lung / discolored.
Where [17] appears, read: group: reproductive, reproductive / offspring survival early / birth index / live birth index + reproductive / reproductive performance / estrous cycle / corpora….
Where [18] appears, read: systemic / in life observation / body weight / body weight gain + systemic / in life observation / body weight / body weight + systemic / in….
Where [19] appears, read: systemic / in life observation / body weight / body weight gain + systemic / urinalysis / porphyrins / porphyrins.
Where [20] appears, read: systemic / in life observation / body weight / body weight gain + systemic / urinalysis / porphyrins / porphyrins + systemic / hematology / ….
Where [21] appears, read: systemic / pathology microscopic / liver / discolored.
Where [22] appears, read: systemic / pathology microscopic / liver / discolored + systemic / clinical chemistry / cholesterol / cholesterol + systemic / in life ….
Setting [23] is: systemic / in life observation / body weight / body weight gain + systemic / pathology microscopic / liver / inflammation.
Where [24] appears, read: group: offspring, systemic / in life observation / body weight / offspring (pup) weight.
The mark [25] stands for this setting: group: parental, systemic / hematology / mean corpuscular (cell) volume (mcv) / mean corpuscular (cell) volume (mcv) + systemic / hematology / mean ….
Setting [26] is: group: developmental, developmental / developmental malformation / bone / thickened + developmental / developmental malformation / bone / wavy.
Where [27] appears, read: group: maternal, systemic / in life observation / clinical signs / abdominogenital staining + systemic / in life observation / clinical signs / discharge on ….
[28] abbreviates: systemic / urinalysis / porphyrins / porphyrins.
The mark [29] stands for this setting: systemic / urinalysis / porphyrins / porphyrins + systemic / organ weight / liver / absolute.

As a reminder, the LOAEL is the lowest dose or exposure tested at which an adverse effect was seen. One may read the NOAEL as the highest dose or exposure tested at which no adverse effect was seen.

On to `CC(C)[C@H](C(=O)O[C@H](C#N)c1cccc(Oc2ccccc2)c1)c1ccc(Cl)cc1` [Esfenvalerate], for which the LOAEL in the data set on rat [1] (systemic / in life observation / clinical signs / jerking movements) amounted to 7.5 mg/kg/day; in the data set on mouse [2] (setting [13]), 106 mg/kg/day; in the data set with dog [3] (systemic / in life observation / body weight / body weight + systemic / in life observation / clinical signs / ataxia), 7.5 mg/kg/day. Further, the NOAEL with rat [1] (systemic / in life observation / clinical signs / jerking movements + systemic / in life observation / body weight / body weight gain + …) worked out at 2.5 mg/kg/day; with mouse [2] (setting [13]), 30.5 mg/kg/day; in the data set with dog [3] (setting [14]), 2.5 mg/kg/day. Moreover, the LEL with rat [1] (systemic / in life observation / clinical signs / jerking movements + systemic / organ weight / kidney / relative to body weight) was 7.5 mg/kg/day; with mouse [2] (systemic / clinical chemistry / glucose / glucose + systemic / clinical chemistry / triglycerides / triglycerides), 30.5 mg/kg/day; in the data set with dog [3] (systemic / in life observation / body weight / body weight + systemic / in life observation / clinical signs / ataxia + systemic / in life …), 7.5 mg/kg/day. The NEL with rat [1] (systemic / organ weight / kidney / relative to body weight + systemic / hematology / erythrocyte (rbc) count differential / erythrocyte (rbc…) came to 2.5 mg/kg/day; in the data set on mouse [2] (setting [13]) it was 10.5 mg/kg/day; with dog [3] (setting [14]) it was 2.5 mg/kg/day.
Turning to `CI` [Methyl iodide], the LEL with rat [4] (setting [15]) came to 5 ppm; with rat [4] (setting [16]), 5 ppm; with rat [4] (setting [17]), 50 ppm; in the data set with rat [5] (setting [18]), 60 ppm. For the same molecule, the lowest observed adverse effect level (LOAEL) in the data set with rat [4] (setting [15]) was found to be 5 ppm; in the data set with rat [4] (setting [16]), 5 ppm; with rat [4] (setting [17]), 50 ppm; in the data set on rat [5] (systemic / in life observation / body weight / body weight gain), 60 ppm. For the same molecule, the NEL in the data set with rat [4] (setting [15]) is less than 5 ppm; with rat [4] (setting [16]) it was less than 5 ppm; in the data set with rat [4] (setting [17]), 20 ppm; in the data set with rat [5] (setting [18]), 20 ppm. For the same molecule, the no observed adverse effect level (NOAEL) in the data set with rat [4] (setting [15]) is less than 5 ppm; in the data set on rat [4] (setting [16]) it was less than 5 ppm; with rat [4] (setting [17]), 20 ppm; in the data set on rat [5] (setting [18]), 20 ppm.
In the case of `CCOC(=O)C(Cl)Cc1cc(-n2nc(C)n(C(F)F)c2=O)c(F)cc1Cl` (centres undefined) [Carfentrazone-ethyl], the LEL in the data set with dog [6] (setting [19]) was 150 mg/kg/day; in the data set on rat [7] (setting [21]), 12 mg/kg/day; with mouse [8] (setting [23]), 10 mg/kg/day; with rat [9] (setting [24]) it was 343 mg/kg/day; with rat [9] (setting [25]), 343 mg/kg/day; in the data set with rat [10] (systemic / in life observation / clinical signs / urine, discoloration + systemic / in life observation / food consumption / food …), 226 mg/kg/day. For the same molecule, the LEL came out at 1250 mg/kg/day in the data set with rat [11] (setting [26]), 600 mg/kg/day in the data set with rat [11] (setting [27]) and 150 mg/kg/day in the data set on dog [12] (setting [28]). Further, the lowest-observed-adverse-effect level (LOAEL) with dog [6] (setting [19]) turned out to be 150 mg/kg/day; in the data set with rat [7] (setting [21]), 12 mg/kg/day; in the data set on mouse [8] (systemic / pathology microscopic / liver / inflammation + systemic / in life observation / mortality / mortality + systemic / pathology …), 110 mg/kg/day; in the data set on rat [9] (setting [24]), 343 mg/kg/day; in the data set with rat [9] (setting [25]), 343 mg/kg/day; with rat [10] (setting [13]), 470 mg/kg/day. Besides, the lowest-observed-adverse-effect level (LOAEL) was found to be 1250 mg/kg/day with rat [11] (setting [26]), 600 mg/kg/day in the data set with rat [11] (setting [27]) and 150 mg/kg/day with dog [12] (setting [28]). Further, the NEL in the data set on dog [6] (setting [20]) is 50 mg/kg/day; with rat [7] (setting [22]) it was 3 mg/kg/day; with mouse [8] (setting [23]) it was less than 10 mg/kg/day; with rat [9] (setting [24]), 127 mg/kg/day; in the data set on rat [9] (setting [25]) it was 127 mg/kg/day; in the data set on rat [10] (setting [13]) it was 58 mg/kg/day. Moreover, the figures for the NEL in the data set on rat [11] (setting [26]), with rat [11] (setting [27]) and in the data set on dog [12] (setting [29]) were 600 mg/kg/day, 100 mg/kg/day and 50 mg/kg/day, respectively. The NOAEL in the data set with dog [6] (setting [20]) was found to be 50 mg/kg/day; with rat [7] (setting [22]) it was 3 mg/kg/day; in the data set on mouse [8] (systemic / in life observation / body weight / body weight gain + systemic / pathology microscopic / liver / inflammation + systemic / in …), 10 mg/kg/day; in the data set on rat [9] (setting [24]) it was 127 mg/kg/day; in the data set with rat [9] (setting [25]), 127 mg/kg/day; with rat [10] (setting [13]), 226 mg/kg/day. Also, the no observed adverse effect level (NOAEL) with rat [11] (setting [26]) came to 600 mg/kg/day; in the data set on rat [11] (setting [27]), 100 mg/kg/day; with dog [12] (setting [29]), 50 mg/kg/day.
